What all share (assay type): biochemical
A short description of test [1]: Salicylic Acid Test (hydroxylation of salicylic acid by hydroxyl radicals, 490 nm). Particulars: sample concentration 0.3 % b.w., average of 2 measurements. As for the experimental part: In a second test, the hydroxylation of salicylic acid by hydroxyl radicals (from the reaction of hydrogen peroxide with iron(III) ions and EDTA) was investigated as a reference system. This reaction can also be photometrically investigated because the hydroxylation product is reddish in colour. The influence of the extracts on the formation of hydroxysalicylic acid was measured at an optical density of 490 nm. The results are also set out in Table 1 where inhibition is again shown in % absolute ("Salicylic Acid Test"). Table 1 Radical-trapping properties in % absolute (results are averages of 2 measurements)

Test [2] is described as follows: Deoxyribose oxidation by hydroxyl radicals (thiobarbituric acid, 532 nm), with or without EDTA. The note with it: sample concentration 0.3 % b.w., average of 2 measurements. As for the experimental part:
In the following test, deoxyribose was used as the test substance. In the presence of hydroxyl radicals formed from H2O2 in the presence of Fe^2+ and EDTA, deoxyribose is oxidized. A pink-coloured substance is formed from the oxidized form by condensation with thiobarbituric acid. The optical density was determined at 532 nm and is dependent on the content of oxidized deoxyribose. A radical-trapping substance reacts with the hydroxyl radicals formed and reduces the formation of pink-coloured substances in this reaction mixture. In addition, the same reaction was carried out without EDTA to investigate complexing properties of the extract with Fe^2+ ions. The concentration of the samples has been again 0.3 % b.w. Table 2 Radical-trapping properties with desoxyribose in % absolute (results are averages of 2 measurements)

Test [3] is described as follows: DPPH Test (radical trapping, photometric at 513 nm). Particulars: Batch A; sample concentration 0.3 % b.w.; average of 2 measurements. From the text:
In a first series of tests, the effectiveness of the extracts against oxidative stress was investigated by chemical methods. A commercially available extract of tomatoes, CLA (Tonalin® CLA, Cognis) and their mixtures were used in concentrations of 0.3 % b.w. The first test substrate selected was diphenyl picryl hydrazyl (DPPH), a purple-red coloured stable radical which changes into its colourless leuco derivative on contact with radical trappers. The change of colour was followed photometrically at 513 nm. The test results are set out in Table 1 ("DPPH Test") where the inhibition of DPPH is shown in % absolute.

A further test deals with xanthine oxidase. Nature of the test: Xanthine oxidase test (superoxide radicals detected with luminol, luminol + microperoxidase or NBT). Particulars: sample concentration 0.3 % b.w., average of 2 measurements; for Test with xanthan oxidase, inhibition, NBT: optical density at 490 nm. From the text:
In the next test, the radical-trapping properties of the test samples were investigated using xanthine oxidase as the test system. Under oxidative stress, the enzyme converts purine bases, for example, adenine or guanine, into uric acid with intermediate formation of oxygen radicals which are spontaneously decomposed into H2O2 and oxygen by Superoxid-Dismutase (SOD). These Superoxid radicals can be detected and quantitatively determined by reaction with luminol or luminol and microperoxidase and by NBT via the luminescence and the optical density at 490 nm. The luminescence yield diminishes in the presence of substances with radical-trapping properties. The concentration of the test samples has been at 0.3 % b.w. again. The results are set out in Table 3 where the inhibition is shown in % absolute ("Luminol Test"). Table 3 Test with xanthan oxidase in % absolute (results are averages of 2 measurements)

Data on 1 substance can be found in patent EP1618800A1, “Active compositions comprising lycopene, cytidin and fatty acids” (Cognis IP Management GmbH, priority 2004, dated 2006).

In the case of conjugated linoleic acid [C2], in test [1] (Batch A), the “Salicylic Acid Test, inhibition” value is on record as 5 % absolute. Also, the “Salicylic Acid Test, inhibition” value in test [1] (Batch B) was found to be 5 % absolute. In test [2] (Batch A), the “Radical-trapping properties with desoxyribose, Reaction with EDTA” value stood at 1 % absolute and the “Radical-trapping properties with desoxyribose, Reaction without EDTA” value came to 0 % absolute. Also, in test [2] (Batch B), the “Radical-trapping properties with desoxyribose, Reaction with EDTA” value was determined as 0 % absolute and the “Radical-trapping properties with desoxyribose, Reaction without EDTA” value was determined as 0 % absolute. Besides, in test [3], the “DPPH Test, inhibition of DPPH” value is 18 % absolute. Further, in the test with xanthine oxidase (Batch A), the “Test with xanthan oxidase, inhibition, Luminol + Microperoxidase” value was found to be 5 % absolute; the “Test with xanthan oxidase, inhibition, Luminol” value amounted to 3 % absolute; the “Test with xanthan oxidase, inhibition, NBT” value is 1 % absolute. Besides, in the test with xanthine oxidase (Batch B), the “Test with xanthan oxidase, inhibition, Luminol + Microperoxidase” value came out at 7 % absolute; the “Test with xanthan oxidase, inhibition, Luminol” value was found to be 3 % absolute; the “Test with xanthan oxidase, inhibition, NBT” value is on record as 1 % absolute.
